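Results reflect a 48-hour exposure of cells in 96-well plates to compound at five concentrations. GI50 marks 50% less growth.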 Active and inactive are the calls of the source. Cut-off read from the data, not from the text of the source: active = GI50 up to about 1.1 µM and inactive = higher.

Holding throughout (experiment): NCI-60 cell line screen, 48 h
The subject of assay [1] is SF-268.
Assay [2] has as its system EKVX.
Assay [3] concerns PC-3.
Assay [4] concerns MOLT-4.
Assay [5] has as its system HL-60.
Assay [6] concerns BT-549.
In assay [7] the test system is DU-145.
In assay [8] the test system is HCT-15.
Assay [9] has as its system HOP-92.
For assay [10], the system named is K562.
Assay [11] relates to NCI/ADR-RES.
Assay [12] deals with M14.
The subject of assay [13] is MDA-MB-435.
Assay [14] concerns ACHN.
The subject of assay [15] is IGROV-1.
Assay [16] relates to NCI-H522.
The subject of assay [17] is SNB-19.
In assay [18] the test system is CCRF-CEM.
In assay [19] the test system is RXF 393.
For assay [20], the system named is OVCAR-8.

Take `CCOC(=O)C1(C(=O)OCC)[C@@H](c2ccccc2)C2=NO[C@@H]3CCC[C@H]1[C@H]23`: the GI50 in assay [1] is > 100 µM (inactive); in [2], 34.7 µM (inactive); in [3], 60.1 µM (inactive); in [4], 55.7 µM (inactive); in assay [5] it was 24.3 µM (inactive); in assay [6], 42.7 µM (inactive). Further, the GI50 in assay [7] was > 100 µM (inactive); in [8], 56 µM; in assay [9], 42.7 µM (inactive); in assay [10], 52.5 µM (inactive); in assay [11], 56.9 µM (inactive); in assay [12], 31.9 µM (inactive). Further, the GI50 in assay [13] is 21.6 µM (inactive); in [14], 66.7 µM (inactive); in assay [15] it was 50.4 µM (inactive); in assay [16], 42.1 µM (inactive); in assay [17], > 100 µM (inactive); in [18] it was 23.8 µM (inactive). The GI50 in [19] was 48.4 µM (inactive); in assay [20], 58.9 µM (inactive).

On to `N#Cc1c(-c2ccccc2)[nH]c2ccc(Cl)cc2c1=O`, for which the GI50 in assay [1] is 36.1 µM (inactive); in assay [2] it was > 100 µM (inactive); in [3] it was > 100 µM (inactive); in [4] it was > 100 µM (inactive); in [5], > 100 µM (inactive); in assay [6], 22.5 µM (inactive). The GI50 in assay [7] is > 100 µM (inactive); in [8] it was more than 100 µM; in assay [9], 22.9 µM (inactive); in [10], > 100 µM (inactive); in assay [11] it was 92.9 µM (inactive); in assay [12], > 100 µM (inactive). Further, the GI50 in assay [13] was > 100 µM (inactive); in assay [14], > 100 µM (inactive); in assay [15] it was 63.1 µM (inactive); in assay [16] it was 26.4 µM (inactive); in assay [17] it was 22.9 µM (inactive); in [18], > 100 µM (inactive). Also, the GI50 is 20.7 µM (inactive) in [19] and 86.9 µM (inactive) in [20].

`CN(/N=C/c1cccc2cccnc12)c1ccc(Cl)cc1[N+](=O)[O-]`: the GI50 in assay [1] is > 100 µM (inactive); in [2], > 100 µM (inactive); in assay [3], > 100 µM (inactive); in assay [4] it was 76.7 µM (inactive); in assay [5] it was > 100 µM (inactive); in assay [6], > 100 µM (inactive). Besides, the GI50 in assay [7] is > 100 µM (inactive); in assay [8] it was more than 100 µM; in assay [9] it was 31.7 µM (inactive); in assay [10], > 100 µM (inactive); in assay [11], 87.1 µM (inactive); in [12], > 100 µM (inactive). Further, the GI50 in assay [13], in assay [14], in assay [15], in [16], in [17] and in assay [18] was > 100 µM (inactive) throughout. The GI50 in assay [19] and in [20] was > 100 µM (inactive) each time.

In the case of `COc1c(-c2nc3ccc(N4CCN(C)CC4)nc3[nH]2)cc(OC)c2c1nc(CO)n2C`, the GI50 was > 100 µM (inactive) in [1]; > 100 µM (inactive) in [2]; > 100 µM (inactive) in [3]; > 100 µM (inactive) in assay [4]; 81.7 µM (inactive) in assay [5]; > 100 µM (inactive) in assay [6]. Moreover, the GI50 in [7] is > 100 µM (inactive); in assay [8], more than 100 µM; in [9] it was > 100 µM (inactive); in assay [10], > 100 µM (inactive); in [11], > 100 µM (inactive); in [12], > 100 µM (inactive). Besides, the GI50 in assay [13], in assay [14], in assay [15], in assay [16], in assay [17] and in assay [18] was > 100 µM (inactive) each time. The GI50 in assay [19] and in [20] was > 100 µM (inactive) each time.

On to `C=CCc1cc(C(Cc2ccccc2)NC(C)C)cc(OCc2ccccc2)c1OCc1ccccc1` (stereo not given), for which the GI50 in assay [1] was 16 µM (inactive); in assay [2], 16.2 µM (inactive); in [3], 15.3 µM (inactive); in [4], 10.7 µM (inactive); in assay [5], 14.5 µM (inactive); in assay [6], 17.3 µM (inactive). Also, the GI50 in assay [7] is 16.2 µM (inactive); in assay [8], 16.3 µM; in assay [9], 12.5 µM (inactive); in [10], 16.8 µM (inactive); in assay [11] it was 16.3 µM (inactive); in [12], 15.3 µM (inactive). The GI50 in [13] is 15.7 µM (inactive); in [14], 16.9 µM (inactive); in [15], 15.8 µM (inactive); in assay [16], 15.3 µM (inactive); in assay [17], 15.3 µM (inactive); in assay [18], 15.9 µM (inactive). For the same compound, the GI50 is 14.4 µM (inactive) in assay [19] and 17 µM (inactive) in [20].

For `O=C[C@@H](CO)O[C@H](C=O)c1c[nH]c(=O)[nH]c1=O`, the GI50 was 102 µM (inactive) in assay [1]; 75.7 µM (inactive) in [2]; 89.1 µM (inactive) in [3]; 47.8 µM (inactive) in [4]; 22.3 µM (inactive) in [5]; 79.1 µM (inactive) in assay [6]. Also, the GI50 in assay [7] is 100 µM (inactive); in assay [8], 57.8 µM; in assay [9], 81.1 µM (inactive); in [10], 66.1 µM (inactive); in [11] it was 103 µM (inactive); in assay [12], 126 µM (inactive). Moreover, the GI50 in [13] is 49.4 µM (inactive); in assay [14], 81.1 µM (inactive); in assay [15], 81.1 µM (inactive); in [16], 70.1 µM (inactive); in assay [17], 129 µM (inactive); in assay [18], 34.9 µM (inactive). Further, the GI50 in assay [19] is 54.8 µM (inactive); in assay [20], 66.1 µM (inactive).
